Columns and labels:
[1] = mouse, in vivo
Description: The objective of the described peptide modification technology is to improve the therapeutic applicability of peptides. Major bottlenecks for therapeutic application of peptides are currently limited stability in vivo and/or short serum half-life and fast clearance. The PK parameters of antibody conjugates of fluorophores were determined in vivo and compare with the PK of non-covalent antibody-fluorophore complexes. Therefore, (i) the anti-biotin antibody VH53C was covalently conjugated to the biotinylated fluorophore Biot-Cys-Cy5, (ii) a non-covalent complex of the anti-biotin antibody with biotinylated fluorophore Biot-Cy5 was generated, (iii) the covalently conjugated and the non-covalently complexed compounds were applied to animals and (iv) the serum concentrations of the compounds over time in these animals was measured by determination of the fluorescence of Cy5 (A650), and that of the corresponding antibody by an ELISA method that specifically detects the humanized antibody.
(§1) Serum samples were stored at −80° C.

[2] = mouse, in vivo; remark: listed apart in the source
Text: The control group was not pre-injected with the anti-biotin antibody.

[3] = Dig-peptide serum kinetic: Western blot detection of digoxigenylated polypeptide in serum; type: in vivo, mouse
Description: as §1
The determination of the amount of digoxigenylated peptide in the serum at the given time points was difficult compared to the detection of Dig-Cy5 as no direct means to detect the polypeptide in serum samples was available. Therefore, a Western-Blot related assay to detect digoxigenylated peptide in serum was established. In a first step, the serum samples were separated on reducing SDS-PAGE. Because sample preparation included exposure of the serum to high concentrations of SDS and reducing agents, complexed Dig-polypeptide conjugates can become released from the (completely denatured/unfolded) anti-digoxigenin antibody, whereas covalently conjugates remained bound. To mediate the release of the polypeptide from the non-covalent antibody complex and separate the individual components by SDS-PAGE, 2 μl of each serum sample was diluted in 18 μl 20 mM histidine/140 mM NaCl pH 6.0, mixed with 6.7 μl of 4×LDS sample buffer and 3 μl of 10× sample reducing agent (NuPAGE, Invitrogen) for 5 min at 95° C. As a control, 2 μl of serum of an untreated mouse of the same strain was used. […] Digoxigenylated polypeptides were subsequently detected on the membrane with an anti-digoxigenin antibody. […] Chemiluminescence was detected with the Lumilmager F1 (Roche) with an exposure time of 20 min.

| Compound | relative Cy5-mediated fluorescence in serum [1] | serum half-life and exposure levels [2] | presence of digoxigenylated polypeptide in serum (Western blot signal) ([3]; 32.1 nmol, 0.08 h to 24 h after administration, FIG. 35) | half-life / persistence in the serum of mice ([3]; Western blot, up to 24 hrs.) |
| --- | --- | --- | --- | --- |
| Biotin-O2Oc-Ser-O2Oc-DADOO-Cy5 [Biotin-Ser-Cy5] | not detectable | low serum half-life and low exposure levels |  |  |
| CC[C@H](C)[C@H](NC(C)=O)C(=O)N[C@@H](CCCCNC(=O)CCOCCOCCOCCNC(=O)CO[C@H]1CC[C@@]2(C)[C@H](CC[C@@H]3[C@@H]2C[C@@H](O)[C@]2(C)[C@@H](C4=CC(=O)OC4)CC[C@]32O)C1)C(=O)N1CCN(c2ccc3ncn(CC(=O)N[C@@H](CCCNC(=N)N)C(=O)N[C@@H](Cc4c[nH]cn4)C(=O)N[C@@H](Cc4ccc(O)cc4)C(=O)N[C@@H](CC(C)C)C(=O)N[C@@H](CC(N)=O)C(=O)N[C@@H](Cc4c[nH]c5ccccc45)C(=O)N[C@H](C(=O)N[C@H](C(=O)N[C@@H](CCCNC(=N)N)C(=O)N[C@@H](CCC(N)=O)C(=O)N(C)[C@@H](CCCNC(=N)N)C(=O)N[C@@H](Cc4ccc(O)cc4)C(N)=O)[C@@H](C)O)C(C)C)c(=O)c3c2)CC1 [non-complexed polypeptide] |  |  | barely any signal associable to the small polypeptide was detectable even at the earliest time point | very short half-life |
